From patent publication US20250101038A1, “COMPOUNDS” (priority 2021, published 2025)
Read-outs that look alike come from different tables or passages of the source.

How the values were obtained:
5-HT2A receptor = target: T1, 5-HT2A receptor (Homo sapiens, UniProt P28223); assay: FLIPR Ca2+ flux functional assay, 5-HT2A; assay type: cell-based
T1 construct: host or cells: HEK293
Protocol: Activity at 5-HT2A, 5-HT2B and 5-HT2C receptors was determined using a FLIPR Ca^2+ flux assay at WuXi AppTec Co. Ltd. (Hong Kong) Discovery Biology Unit according to their standard protocols. Briefly, stably transfected cells expressing the receptor of interest (HEK293 for 5-HT2A and 5-HT2C; CHO-K1 for 5-HT2B) were grown and plated in a 384 well plate and incubated at 37° C. and 5% CO2 overnight. A 250 mM stock solution of probenecid in FLIPR calcium assay buffer (10 mL) was freshly prepared and combined with a fluorescent dye (Fluo-4 Direct) to give a final assay concentration of 2.5 mM. Reference compounds were 4-fold serially diluted and the screening compounds were 3-fold serially diluted in 100% DMSO for 10 points using Agilent Bravo, and 750 nL was added to a 384 well compound plate using Echo along with 30 μL assay buffer. The fluorescent dye was then added to the assay plate along with assay buffer to a final volume of […]. The cell plate was incubated for 50 min at 37° C. and 5% CO2 and placed into the FLIPR Tetra along with the compound plate. 10 μL of references and compounds were then transferred from the compound plate into the cell plate and the fluorescent signal was read.

5-HT2C receptor = target: T2, 5-HT2C receptor (Homo sapiens, UniProt P28335); assay: cell-based
T2 construct: host or cells: HEK293
T2 sequence (P28335 33-458): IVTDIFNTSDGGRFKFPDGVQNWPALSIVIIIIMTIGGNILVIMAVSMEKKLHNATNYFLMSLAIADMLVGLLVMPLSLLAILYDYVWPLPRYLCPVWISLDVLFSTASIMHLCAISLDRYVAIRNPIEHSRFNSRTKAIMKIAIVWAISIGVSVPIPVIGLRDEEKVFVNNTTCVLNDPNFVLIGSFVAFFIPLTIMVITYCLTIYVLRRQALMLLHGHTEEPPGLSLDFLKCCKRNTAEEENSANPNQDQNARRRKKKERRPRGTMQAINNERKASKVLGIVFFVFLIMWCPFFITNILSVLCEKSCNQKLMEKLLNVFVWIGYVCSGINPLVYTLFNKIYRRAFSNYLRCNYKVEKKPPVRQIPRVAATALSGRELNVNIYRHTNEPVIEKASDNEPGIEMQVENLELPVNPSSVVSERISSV

5-HT2B receptor = target: T3, 5-HT2B receptor (Homo sapiens, UniProt P41595); assay: cell-based
T3 construct: host or cells: CHO-K1
T3 sequence (P41595 whole entry): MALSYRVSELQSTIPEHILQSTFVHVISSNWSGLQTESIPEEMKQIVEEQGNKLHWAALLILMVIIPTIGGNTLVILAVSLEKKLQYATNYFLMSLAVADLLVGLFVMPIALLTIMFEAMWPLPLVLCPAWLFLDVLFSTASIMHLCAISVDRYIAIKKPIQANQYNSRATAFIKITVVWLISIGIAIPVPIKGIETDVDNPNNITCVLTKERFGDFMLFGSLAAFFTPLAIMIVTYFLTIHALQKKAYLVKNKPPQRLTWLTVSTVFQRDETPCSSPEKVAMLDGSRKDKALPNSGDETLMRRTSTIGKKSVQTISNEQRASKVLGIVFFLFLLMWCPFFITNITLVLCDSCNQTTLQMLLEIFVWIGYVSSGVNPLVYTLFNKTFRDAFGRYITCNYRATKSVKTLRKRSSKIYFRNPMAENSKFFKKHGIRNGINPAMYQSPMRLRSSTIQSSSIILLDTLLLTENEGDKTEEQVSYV

[1] = agonist activity, Ca2+ flux, HEK293 cells
[2] = agonist activity, Ca2+ flux, HEK293 cells, read-out: 5-HT2A EC50
[3] = agonist activity, Ca2+ flux, HEK293 cells, read-out: 5-HT2C EC50
[4] = agonist activity, Ca2+ flux, CHO-K1 cells
[5] = agonist activity, Ca2+ flux, CHO-K1 cells, read-out: 5-HT2B EC50

T1 sequence (P28223 whole entry): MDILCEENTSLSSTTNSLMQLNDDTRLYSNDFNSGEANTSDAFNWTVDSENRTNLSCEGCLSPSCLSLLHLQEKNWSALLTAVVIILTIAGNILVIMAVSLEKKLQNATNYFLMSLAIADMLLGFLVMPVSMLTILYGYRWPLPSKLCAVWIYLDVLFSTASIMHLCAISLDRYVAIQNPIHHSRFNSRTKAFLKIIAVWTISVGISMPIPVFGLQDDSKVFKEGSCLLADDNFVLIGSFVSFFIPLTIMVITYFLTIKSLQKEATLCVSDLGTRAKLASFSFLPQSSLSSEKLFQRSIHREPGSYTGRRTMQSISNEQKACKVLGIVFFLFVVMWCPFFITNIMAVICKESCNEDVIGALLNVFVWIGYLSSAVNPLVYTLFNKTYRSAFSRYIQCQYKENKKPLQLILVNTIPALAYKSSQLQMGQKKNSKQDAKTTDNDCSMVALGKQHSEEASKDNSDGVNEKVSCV

SMILES	Emax (5-HT2A receptor; [1]) [%]	EC50 (5-HT2A receptor; [2]) [nM]	Emax (5-HT2C receptor; [1]) [%]	EC50 (5-HT2C receptor; [3]) [nM]	Emax (5-HT2B receptor; [4]) [%]	EC50 (5-HT2B receptor; [5]) [nM]	EC50 (5-HT2A receptor) [nM]	EC50 (5-HT2C receptor) [nM]	EC50 (5-HT2B receptor) [nM]
CN(C)CCc1c[nH]c2cc3c(cc12)OCC3 [Example P-1, 2-(3,5-dihydro-2H-furo[2,3-f]indol-7-yl)-N,N-dimethylethan-1-amine]	63.9	139	82.3	134	2.92	> 10000			
CN(C)CCc1c[nH]c2cc3ccoc3cc12 [Example P-2, 2-(5H-Furo[2,3-f]indol-7-yl)-N,N-dimethylethan-1-amine]	46.5	207	80.6	56.8	-1.07	> 10000			
CN(C)CCc1c[nH]c2ccc3c(c12)OCC3 [Example P-3, 2-(3,6-dihydro-2H-furo[2,3-e]indol-8-yl)-N,N-dimethylethan-1-amine]	81	9.73	76.4	16.2	13.8	> 10000			
CN(C)CCc1c[nH]c2cc3occc3cc12 [Example P-4, 2-(7H-furo[3,2-f]indol-5-yl)-N,N-dimethylethan-1-amine]	70.4		78.9		4.68		9.39	6.11	> 10000
COc1ccc2[nH]cc(CCN(C)C)c2c1C [Example P-6, 2-(5-methoxy-4-methyl-1H-indol-3-yl)-N,N-dimethylethan-1-amine]	64.1	124	73.6	303	11.3	> 10000			
COc1cc2c(CCN(C)C)c[nH]c2cc1C [Example P-7, 2-(5-methoxy-6-methyl-1H-indol-3-yl)-N,N-dimethylethan-1-amine]	81.9	15.8	81.1	110	1.71	> 10000			
COc1c(C)ccc2[nH]cc(CCN(C)C)c12 [Example P-9, 2-(4-methoxy-5-methyl-1H-indol-3-yl)-N,N-dimethylethan-1-amine]	65	24.6	80.7	6.23	17.3	> 10000			
Cc1ccc2[nH]cc(CCN(C)C)c2c1O [Example P-10, 3-(2-(dimethylamino)ethyl)-5-methyl-1H-indol-4-ol]	63.1	55.1	71.2	72.8	-0.21	> 10000			
Cc1cc(O)c2c(CCN(C)C)c[nH]c2c1 [Example P-12, 3-(2-(dimethylamino)ethyl)-6-methyl-1H-indol-4-ol]	67.8	80.4	69.3	144	1.23	> 10000			
COc1ccc(C)c2[nH]cc(CCN(C)C)c12 [Example P-13, 2-(4-methoxy-7-methyl-1H-indol-3-yl)-N,N-dimethylethan-1-amine]	36.1	107	69.5	56	0.67	> 10000			
COc1cc(F)cc2[nH]cc(CCN(C)C)c12 [Example P-14, 2-(6-fluoro-4-methoxy-1H-indol-3-yl)-N,N-dimethylethan-1-amine]	87.2	12.9	75.7	2.6	0.17	> 10000			
COc1ccc2[nH]cc(CCN(C)C(C)C)c2c1C [Example P-38, N-(2-(5-methoxy-4-methyl-1H-indol-3-yl)ethyl)-N-methylpropan-2-amine]	83.3	189	23.7	> 10000	45.4	659			
CCN(CCc1c[nH]c2ccc(OC)c(C)c12)C(C)C [Example P-40, N-ethyl-N-(2-(5-methoxy-4-methyl-1H-indol-3-yl)ethyl)propan-2-amine]	78.4	894	0.71	> 10000	33.8	> 10000			
